Assay results from publication PMC6757234, “Extractions of Medical Cannabis Cultivars and the Role of Decarboxylation in Optimal Receptor Responses” (Cannabis and Cannabinoid Research, 2019).
Where two headings read alike, the source gives them in different places.

How the values were obtained:
CB1 receptor = biological target: T1, CB1 receptor (Homo sapiens, UniProt P21554); test: cell-based; assay type: cell-based
T1 construct: host or cells: CHO-K1-CB1

CB2 receptor = biological target: T2, CB2 receptor (Homo sapiens, UniProt P34972); test: cAMP assay (HitHunter) in CHO-K1-CB2 cells, agonist and antagonist modes; assay type: cell-based; details: for EC50 / CB2 Efficacy (%): agonist or antagonist mode; for EC50: antagonist mode against CP-55940 at EC90; for CB2 Efficacy (%): percentage of the response to CP-55940; for CB2 Mode of action: CHO-K1-CB2 cells, forskolin 20 μM, NA = no activity
T2 construct: host or cells: CHO-K1-CB2
T2 sequence (P34972 whole entry): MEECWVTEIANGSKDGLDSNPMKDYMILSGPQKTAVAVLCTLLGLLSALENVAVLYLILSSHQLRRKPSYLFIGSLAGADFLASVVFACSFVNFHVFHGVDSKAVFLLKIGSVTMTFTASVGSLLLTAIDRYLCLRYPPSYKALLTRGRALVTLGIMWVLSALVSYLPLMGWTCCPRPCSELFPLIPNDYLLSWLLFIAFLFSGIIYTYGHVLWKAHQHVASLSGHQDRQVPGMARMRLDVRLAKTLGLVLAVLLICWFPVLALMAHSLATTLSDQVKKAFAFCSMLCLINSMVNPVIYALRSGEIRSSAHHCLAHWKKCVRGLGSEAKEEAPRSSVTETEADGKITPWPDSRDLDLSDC

human CB1 = biological target: human CB1; parameters: method as in PMID 28861508; details: reference standard contaminated with 2% Δ9-THC; read-out: approximate Ki at human CB1; cited from earlier work
human CB2 receptors = biological target: human CB2 receptors; parameters: method as in PMID 28861508; details: reference standard contaminated with 2% Δ9-THC; read-out: approximate Ki at human CB2; cited from earlier work
[1] = percentage of the response to CP-55940, agonist or antagonist mode

T1 sequence (P21554 whole entry): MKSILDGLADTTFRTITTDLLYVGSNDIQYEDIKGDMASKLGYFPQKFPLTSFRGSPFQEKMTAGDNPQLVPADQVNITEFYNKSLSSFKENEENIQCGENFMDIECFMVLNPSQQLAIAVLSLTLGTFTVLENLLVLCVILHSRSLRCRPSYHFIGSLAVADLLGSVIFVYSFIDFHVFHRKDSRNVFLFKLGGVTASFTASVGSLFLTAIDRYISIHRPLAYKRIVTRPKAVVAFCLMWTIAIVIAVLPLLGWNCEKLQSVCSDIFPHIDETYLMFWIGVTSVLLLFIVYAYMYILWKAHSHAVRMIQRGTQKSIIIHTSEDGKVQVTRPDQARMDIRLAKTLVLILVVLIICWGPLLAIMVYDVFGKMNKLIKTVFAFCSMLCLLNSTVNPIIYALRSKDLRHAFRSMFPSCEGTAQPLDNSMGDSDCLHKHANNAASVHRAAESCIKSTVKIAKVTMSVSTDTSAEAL

**Q.** For `C=C(C)[C@@H]1CCC(C)=C[C@H]1c1c(O)cc(CCCCC)c(C(=O)O)c1O` [CBDA, cannabidiolic acid], which EC50 (CB1 receptor) is on record?
**A.** Its EC50 is > 10 µM.

**Q.** And the “CB1 Efficacy (%)” value (CB1 receptor; [1])?
**A.** Its value is 0%.

**Q.** And the EC50 (CB2 receptor; read-out: CB2 EC50)?
**A.** The EC50 was > 100 µM.

**Q.** And the “fold weaker than CBD at CB2 receptor as an antagonist” value (CB2 receptor; comparison of EC50 values)?
**A.** The value was “more than 10 fold”.

**Q.** What about the “CB2 Efficacy (%)” value (CB2 receptor) of the same molecule?
**A.** Its value is −23%.

**Q.** Which “CB1 Efficacy (%)” value (CB1 receptor) does the source give for `CCCCCc1cc2c(c(O)c1C(=O)O)[C@@H]1C=C(C)CC[C@H]1C(C)(C)O2` [Δ^9-THCA, Δ^9-tetrahydrocannabinolic acid] here?
**A.** The value was 100%.

**Q.** What about the “CB1 Mode of action” value (CB1 receptor) of the same molecule?
**A.** The value was “Weak agonist”.

**Q.** What about the EC50 (CB1 receptor) of the same molecule?
**A.** The EC50 was 1.8 ± 0.7 µM.

**Q.** What about the EC50 (CB2 receptor; CB2 EC50 (μM)) of the same molecule?
**A.** The EC50 was 30 ± 15 µM.

**Q.** And the “CB2 Mode of action” value (CB2 receptor)?
**A.** Its value is “Weak agonist”.

**Q.** And the “CB2 Efficacy (%)” value (CB2 receptor)?
**A.** The value was 100%.

**Q.** And the Ki (human CB1)?
**A.** Its Ki is ~3.1 µM.

**Q.** What about the Ki (human CB2 receptors) of the same molecule?
**A.** The Ki was ~12.5 µM.

**Q.** Which “CB1 Mode of action” value (CB1 receptor; CHO-K1-CB1 cells, forskolin 20 μM, NA = no activity) does the source give for `C=C(C)[C@@H]1CCC(C)=C[C@H]1c1c(O)cc(CCCCC)cc1O` [CBD, cannabidiol, reference compound] here?
**A.** Its value is “Antagonist”.

**Q.** What about the “CB1 Efficacy (%)” value (CB1 receptor; [1]) of the same molecule?
**A.** Its value is 40%.

**Q.** What about the “CB2 Mode of action” value (CB2 receptor) of the same molecule?
**A.** The value was “Antagonist”.

**Q.** And the “CB2 Efficacy (%)” value (CB2 receptor)?
**A.** The value was 100%.

**Q.** For `CCCCCc1cc(O)c2c(c1)OC(C)(C)[C@@H]1CCC(C)=C[C@@H]21` [Δ^9-THC, Δ^9-tetrahydrocannabinol], which “CB2 Mode of action” value (CB2 receptor) is on record?
**A.** The value was “Weak partial agonist”.

**Q.** What about the “CB2 Efficacy (%)” value (CB2 receptor) of the same molecule?
**A.** The value was 20%.

**Q.** Which “CB1 Efficacy (%)” value (CB1 receptor) does the source give for `CCCCCCC(C)(C)c1ccc([C@@H]2C[C@H](O)CC[C@H]2CCCO)c(O)c1` [CP-55940, reference compound] here?
**A.** Its value is 100%.

**Q.** What about the “CB1 Mode of action” value (CB1 receptor) of the same molecule?
**A.** The value was “Agonist”.

**Q.** And the “CB2 Mode of action” value (CB2 receptor)?
**A.** The value was “Agonist”.

**Q.** And the “CB2 Efficacy (%)” value (CB2 receptor)?
**A.** The value was 100%.

**Q.** With `COc1ccc(C(=O)c2c(C)n(CCN3CCOCC3)c3cc(I)ccc23)cc1` [AM-630] as the molecule, how does the “CB2 Mode of action” value (CB2 receptor) read?
**A.** The value was “Antagonist”.

**Q.** What about the EC50 (CB2 receptor; read-out: CB2 EC50) of the same molecule?
**A.** Its EC50 is 0.146 ± 0.084 µM.

**Q.** And the “CB2 Efficacy (%)” value (CB2 receptor)?
**A.** Its value is 100%.
